{"source": "patent US20160279252A1", "about": "“COMPOSITIONS FOR INDUCING IMMUNE TOLERANCE TO COAGULATION FACTOR PROTEINS” (BAYER HEALTHCARE LLC, priority 2013, published 2016)", "key": {"C57BL/6J mice": {"tested_on": "C57BL/6J mice", "assay": "Tolerization of C57BL/6J mice to HEL (anti-HEL titers)", "type": "in vivo, mouse", "details": "for effect of ligand amount on liposomes on antibody production: HEL liposomes with varying ligand, day 44 after two challenges", "quoted_text": "Immunization and Blood Collection: Whole blood (50 μL) was collected from mice via a retro-orbital bleed using heparinized capillary tubes (Fisher). Blood was centrifuged (17,000 rcf, 1 min) to collect the serum. Serum was either used immediately for ELISAs or stored at −20° C. […] Liposomes and cells were delivered via the lateral tail vein in a volume of 200 μL. For studies involving a challenge with soluble (non-liposomal) antigen, mice were injected with 200 μg of HEL dissolved in HBSS and delivered intraperitoneally or 1 μg of FVIII delivered intravenously.\nELISAs: Maxisorp plates (96-well; Thermo Fisher) were coated with 50 μL/well of the relevant protein at a concentration of between 10-100 μg/mL in PBS and left overnight at 4° C. […] The following day, the plates were washed twice in TBS-T (Tris-buffered saline blocked containing 0.1% Tween 20) and blocked for 1 hr at RT with 100 μL of assay diluent (TBS-T with 1% BSA). Washing of the plates was accomplished by submerging the entire plate into a basin of wash buffer the appropriate number of times. Serum was initially diluted between 20-10,000-fold and diluted in 2-3 fold serial dilutions eight times on the ELISA plate. Plates were incubated with serum (50 μL/well) for 1 hr at 37° C. after which the plates were washed four times in TBS-T. HRP-conjugated secondary antibodies (Santa Cruz Biotechnologies) were diluted 2000-fold in assay diluent and 50 μL was added to each well. After incubation for 1 hr at 37° C., the plates were washed five times in TBS-T. To develop the plate, 75 μL/well of TMB substrate (Thermo Fisher) was added. The plate was incubated at RT for 15 minutes and then 75 μL/well of 2N H2504 was added to quench the reaction. Plates were read at 450 nm using a spectrophotometer (Molecular Devices). The titer was defined as the endpoint titer, which was the dilution of serum that produced an absorbance 2-fold above background.\nLiposomes: All liposomes were composed of a 60:35:5 molar ratio of distearoyl phosphatidylcholine (DSPC; Avanti Polar Lipids), cholesterol (Sigma), and pegylated lipids. […]"}, "murine CD22": {"target": "T1, murine CD22 (Mus musculus, UniProt P35329)", "T1 sequence (P35329 22-868)": "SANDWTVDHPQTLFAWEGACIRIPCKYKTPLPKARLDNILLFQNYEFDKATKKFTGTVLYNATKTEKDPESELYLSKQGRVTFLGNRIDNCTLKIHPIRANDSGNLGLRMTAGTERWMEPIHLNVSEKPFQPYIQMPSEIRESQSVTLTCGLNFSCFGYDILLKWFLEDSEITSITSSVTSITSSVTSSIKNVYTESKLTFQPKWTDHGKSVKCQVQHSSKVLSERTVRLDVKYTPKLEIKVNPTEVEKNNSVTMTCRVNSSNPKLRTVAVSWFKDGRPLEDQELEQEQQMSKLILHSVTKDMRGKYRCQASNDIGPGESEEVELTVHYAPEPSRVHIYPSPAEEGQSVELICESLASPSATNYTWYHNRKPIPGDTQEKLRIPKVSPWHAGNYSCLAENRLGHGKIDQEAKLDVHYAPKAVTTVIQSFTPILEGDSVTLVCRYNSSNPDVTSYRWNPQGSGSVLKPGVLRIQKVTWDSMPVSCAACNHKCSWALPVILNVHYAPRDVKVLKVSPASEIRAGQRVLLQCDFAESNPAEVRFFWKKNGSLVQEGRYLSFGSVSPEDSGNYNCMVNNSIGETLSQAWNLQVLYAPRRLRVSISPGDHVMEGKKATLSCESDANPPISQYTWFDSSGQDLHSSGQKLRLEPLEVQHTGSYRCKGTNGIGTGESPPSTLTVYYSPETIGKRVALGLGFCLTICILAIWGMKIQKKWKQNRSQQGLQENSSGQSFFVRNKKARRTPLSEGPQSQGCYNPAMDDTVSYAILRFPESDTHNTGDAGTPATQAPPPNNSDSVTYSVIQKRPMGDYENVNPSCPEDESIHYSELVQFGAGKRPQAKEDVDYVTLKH", "details": "vs NeuGcα2-6Galβ1-4GlcNAc; cited from earlier work"}, "Siglec-G": {"target": "T2, Siglec-G (Mus musculus, UniProt Q80ZE3)", "T2 sequence (Q80ZE3 18-688)": "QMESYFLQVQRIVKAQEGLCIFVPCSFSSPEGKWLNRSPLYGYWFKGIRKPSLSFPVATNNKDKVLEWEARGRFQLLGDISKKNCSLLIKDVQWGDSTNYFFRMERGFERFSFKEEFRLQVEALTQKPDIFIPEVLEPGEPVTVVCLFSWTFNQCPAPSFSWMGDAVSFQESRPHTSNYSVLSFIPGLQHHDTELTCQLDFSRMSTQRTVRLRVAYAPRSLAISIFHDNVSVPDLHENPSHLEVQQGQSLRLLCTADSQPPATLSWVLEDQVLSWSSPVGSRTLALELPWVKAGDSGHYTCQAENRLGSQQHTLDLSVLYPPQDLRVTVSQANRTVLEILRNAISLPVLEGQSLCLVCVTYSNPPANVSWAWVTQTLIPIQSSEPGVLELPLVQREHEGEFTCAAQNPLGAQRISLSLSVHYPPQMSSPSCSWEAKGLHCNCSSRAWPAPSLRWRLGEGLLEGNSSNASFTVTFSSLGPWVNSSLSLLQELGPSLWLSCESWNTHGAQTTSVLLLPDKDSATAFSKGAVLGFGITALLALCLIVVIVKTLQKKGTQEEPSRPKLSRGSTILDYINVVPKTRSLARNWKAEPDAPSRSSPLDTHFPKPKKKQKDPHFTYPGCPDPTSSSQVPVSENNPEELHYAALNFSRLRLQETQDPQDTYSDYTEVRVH", "details": "cited from earlier work"}, "FVIII deficient plasma": {"tested_on": "FVIII deficient plasma", "assay": "Coagulation assay (one-stage aPTT clotting FVIII:C)", "type": "biochemical", "details": "PEGylated with PEGs 6 kD to 64 kD, assayed without purification", "experimental": "COAGULATION ASSAY. The clotting FVIII:C test method is a one-stage assay based upon the activated partial thromboplastin time (aPTT). FVIII acts as a cofactor in the presence of Factor IXa, calcium, and phospholipid in the enzymatic conversion of Factor X to Xa. In this assay, the diluted test samples are incubated at 37° C. with a mixture of FVIII deficient plasma substrate and aPTT reagent. Calcium chloride is added to the incubated mixture and clotting is initiated. An inverse relationship exists between the time (seconds) it takes for a clot to form and logarithm of the concentration of FVIII:C. Activity levels for unknown samples are interpolated by comparing the clotting times of various dilutions of test material with a curve constructed from a series of dilutions of standard material of known activity and are reported in International Units per mL (IU/mL).\nEFFECT OF PEG SIZE ON ACTIVITY. To test whether PEG sizes have an effect on both coagulation and chromogenic activities of FVIII upon PEGylation, purified full-length FVIII, PEG2, PEG6, and PEG14 were reduced by TCEP followed by reductant removal and reaction with a buffer control or PEGs ranging from 6 kD to 64 kD. The resulting PEGylated FVIII was directly assayed without removal of excess PEG or unPEGylated FVIII."}, "human CD22": {"target": "human CD22 (Homo sapiens, UniProt P20273)", "sequence (P20273 20-847)": "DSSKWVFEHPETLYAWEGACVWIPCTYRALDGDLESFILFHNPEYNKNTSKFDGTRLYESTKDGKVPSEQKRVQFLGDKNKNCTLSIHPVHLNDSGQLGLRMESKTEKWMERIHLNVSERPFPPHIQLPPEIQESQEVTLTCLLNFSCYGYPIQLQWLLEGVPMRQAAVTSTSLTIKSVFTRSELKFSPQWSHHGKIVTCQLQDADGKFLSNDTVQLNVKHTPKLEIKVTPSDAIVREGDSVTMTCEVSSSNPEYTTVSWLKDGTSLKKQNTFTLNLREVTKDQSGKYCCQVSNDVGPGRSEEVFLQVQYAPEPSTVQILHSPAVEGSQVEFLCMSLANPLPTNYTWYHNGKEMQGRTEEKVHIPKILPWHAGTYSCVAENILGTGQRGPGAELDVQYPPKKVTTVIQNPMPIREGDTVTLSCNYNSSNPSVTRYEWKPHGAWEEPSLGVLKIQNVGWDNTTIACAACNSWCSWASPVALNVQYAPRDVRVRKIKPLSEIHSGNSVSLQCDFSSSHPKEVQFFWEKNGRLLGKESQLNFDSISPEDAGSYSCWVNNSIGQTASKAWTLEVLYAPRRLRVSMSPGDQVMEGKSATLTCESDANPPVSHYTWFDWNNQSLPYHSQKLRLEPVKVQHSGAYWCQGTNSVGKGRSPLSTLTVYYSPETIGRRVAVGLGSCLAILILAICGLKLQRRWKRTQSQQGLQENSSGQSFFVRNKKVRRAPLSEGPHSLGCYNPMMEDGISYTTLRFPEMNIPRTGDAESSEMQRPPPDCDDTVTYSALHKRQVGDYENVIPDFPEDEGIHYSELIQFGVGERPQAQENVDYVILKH", "details": "cited from earlier work"}}, "data": [{"compound": "9-N-biphenylacetyl-NeuGcα2-6Galβ1-4GlcNAc [^BPANeuGc]", "values": [{"measurement": "effect of ligand amount on liposomes on antibody production", "setting": "C57BL/6J mice", "value": "dose-dependent effect on antibody production"}, {"measurement": "difference in EC50 between the two ligands", "setting": "C57BL/6J mice; ^BPANeuGc vs NeuGc on tolerogenic HEL liposomes", "value": "two orders of magnitude difference"}, {"measurement": "affinity for murine CD22 relative to natural ligand", "setting": "murine CD22", "value": 200, "unit": "fold"}, {"measurement": "cross-reactivity with Siglec-G", "setting": "Siglec-G", "value": "only a small degree of cross-reactivity"}]}, {"compound": "PEG6", "values": [{"measurement": "coagulation activity upon PEGylation", "setting": "FVIII deficient plasma", "value": "dramatic losses of coagulation activity"}]}, {"compound": "9-N-biphenylcarboxyl-NeuAca2-6Galβ3-4GlcNAc [^BPCNeuAc]", "values": [{"measurement": "affinity for human CD22", "setting": "human CD22", "value": "high affinity"}]}, {"compound": "CC(=O)NC1C(O)OC(CO)C(OC2OC(COC3(C(=O)O)CC(O)C(NC(=O)CO)C(C(O)C(O)CO)O3)C(O)C(O)C2O)C1O", "note": "(stereo not shown) [NeuGc, NeuGcα2-6Galβ1-4GlcNAc]", "values": [{"measurement": "effect of ligand amount on liposomes on antibody production", "setting": "C57BL/6J mice", "value": "dose-dependent effect on antibody production"}]}]}
